Results as given in patent US12479848B2, “Substituted fused heteroaromatic bicyclic compounds as kinase inhibitors and the use thereof” (IMPACT THERAPEUTICS (SHANGHAI), INC, priority 2019, dated 2025).
pIC50: −log10 of the molar value.

How the values were obtained:
[1] = tested on: human colon cancer cell LoVo; test: MTT proliferation assay, LoVo; format: cell-based; conditions: Homo sapiens, LoVo, 96 h, 4 days, read-out: IC50 (nM), inhibition of proliferation of LoVo
Description: The cells were seeded into 96-well cell culture plate with a density of 2000/4000 cells per well and incubated overnight in a 5% CO2 incubator at 37° C. […] 5 μL diluent of each concentration was added to 120 μL of medium (25 times diluted) and mixed by shaking. The overnight cell plates were taken and the culture medium was removed, 195 μL of fresh medium was added to each well, and 5 μL of diluted medium containing the corresponding concentration of the test compound was added respectively (the final concentration of DMSO is 1%), and the culture plate was then placed in a 5% CO2 incubator at 37° C. for 4 days. After removing the original solution, 100 μL of fresh serum-free DMEM medium containing MTT (0.5 mg/mL) was added to each well, the culture was continued. […] Cell viability (%)=(ODcompound−ODbackground)/(ODDMSO-ODbackground)×100. GraphPad Prism 6.0 was used to analyze the data. The inhibitory activity of compounds on cell proliferation was plotted based on cell viability and the logarithm of compound concentration.

[2] = tested on: human lung cancer cell NCI-H460; test: MTT proliferation assay, NCI-H460; format: cell-based; conditions: Homo sapiens, NCI-H460, 96 h, 4 days, read-out: IC50 (nM), inhibition of proliferation of NCI-H460
Description: The cells were seeded into 96-well cell culture plate with a density of 2000/4000 cells per well and incubated overnight in a 5% CO2 incubator at 37° C. […] diluent of each concentration was added to 120 μL of medium (25 times diluted) and mixed by shaking. The overnight cell plates were taken and the culture medium was removed, 195 μL of fresh medium was added to each well, and 5 μL of diluted medium containing the corresponding concentration of the test compound was added respectively (the final concentration of DMSO is 1%), and the culture plate was then placed in a 5% CO2 incubator at 37° C. for 4 days. After removing the original solution, 100 μL of fresh serum-free DMEM medium containing MTT (0.5 mg/mL) was added to each well, the culture was continued. […] Cell viability (%)=(ODcompound−ODbackground)/(ODDMSO−ODbackground)×100. GraphPad Prism 6.0 was used to analyze the data. The inhibitory activity of compounds on cell proliferation was plotted based on cell viability and the logarithm of compound concentration.

ATR/ATRIP enzyme = molecular target: T1, ATR/ATRIP enzyme (Homo sapiens, UniProt Q13535); test: ATR enzyme activity experiment (HTRF); format: biochemical; conditions: for pIC50: HTRF, p53 substrate, 30 minutes at room temperature; for inhibition at 0.05 µM: read-out: Inh %, inhibitory effects on ATR kinase activity at 50 nM
T1 construct: purchased Eurofins 14-953
T1 sequence (Q13535 whole entry): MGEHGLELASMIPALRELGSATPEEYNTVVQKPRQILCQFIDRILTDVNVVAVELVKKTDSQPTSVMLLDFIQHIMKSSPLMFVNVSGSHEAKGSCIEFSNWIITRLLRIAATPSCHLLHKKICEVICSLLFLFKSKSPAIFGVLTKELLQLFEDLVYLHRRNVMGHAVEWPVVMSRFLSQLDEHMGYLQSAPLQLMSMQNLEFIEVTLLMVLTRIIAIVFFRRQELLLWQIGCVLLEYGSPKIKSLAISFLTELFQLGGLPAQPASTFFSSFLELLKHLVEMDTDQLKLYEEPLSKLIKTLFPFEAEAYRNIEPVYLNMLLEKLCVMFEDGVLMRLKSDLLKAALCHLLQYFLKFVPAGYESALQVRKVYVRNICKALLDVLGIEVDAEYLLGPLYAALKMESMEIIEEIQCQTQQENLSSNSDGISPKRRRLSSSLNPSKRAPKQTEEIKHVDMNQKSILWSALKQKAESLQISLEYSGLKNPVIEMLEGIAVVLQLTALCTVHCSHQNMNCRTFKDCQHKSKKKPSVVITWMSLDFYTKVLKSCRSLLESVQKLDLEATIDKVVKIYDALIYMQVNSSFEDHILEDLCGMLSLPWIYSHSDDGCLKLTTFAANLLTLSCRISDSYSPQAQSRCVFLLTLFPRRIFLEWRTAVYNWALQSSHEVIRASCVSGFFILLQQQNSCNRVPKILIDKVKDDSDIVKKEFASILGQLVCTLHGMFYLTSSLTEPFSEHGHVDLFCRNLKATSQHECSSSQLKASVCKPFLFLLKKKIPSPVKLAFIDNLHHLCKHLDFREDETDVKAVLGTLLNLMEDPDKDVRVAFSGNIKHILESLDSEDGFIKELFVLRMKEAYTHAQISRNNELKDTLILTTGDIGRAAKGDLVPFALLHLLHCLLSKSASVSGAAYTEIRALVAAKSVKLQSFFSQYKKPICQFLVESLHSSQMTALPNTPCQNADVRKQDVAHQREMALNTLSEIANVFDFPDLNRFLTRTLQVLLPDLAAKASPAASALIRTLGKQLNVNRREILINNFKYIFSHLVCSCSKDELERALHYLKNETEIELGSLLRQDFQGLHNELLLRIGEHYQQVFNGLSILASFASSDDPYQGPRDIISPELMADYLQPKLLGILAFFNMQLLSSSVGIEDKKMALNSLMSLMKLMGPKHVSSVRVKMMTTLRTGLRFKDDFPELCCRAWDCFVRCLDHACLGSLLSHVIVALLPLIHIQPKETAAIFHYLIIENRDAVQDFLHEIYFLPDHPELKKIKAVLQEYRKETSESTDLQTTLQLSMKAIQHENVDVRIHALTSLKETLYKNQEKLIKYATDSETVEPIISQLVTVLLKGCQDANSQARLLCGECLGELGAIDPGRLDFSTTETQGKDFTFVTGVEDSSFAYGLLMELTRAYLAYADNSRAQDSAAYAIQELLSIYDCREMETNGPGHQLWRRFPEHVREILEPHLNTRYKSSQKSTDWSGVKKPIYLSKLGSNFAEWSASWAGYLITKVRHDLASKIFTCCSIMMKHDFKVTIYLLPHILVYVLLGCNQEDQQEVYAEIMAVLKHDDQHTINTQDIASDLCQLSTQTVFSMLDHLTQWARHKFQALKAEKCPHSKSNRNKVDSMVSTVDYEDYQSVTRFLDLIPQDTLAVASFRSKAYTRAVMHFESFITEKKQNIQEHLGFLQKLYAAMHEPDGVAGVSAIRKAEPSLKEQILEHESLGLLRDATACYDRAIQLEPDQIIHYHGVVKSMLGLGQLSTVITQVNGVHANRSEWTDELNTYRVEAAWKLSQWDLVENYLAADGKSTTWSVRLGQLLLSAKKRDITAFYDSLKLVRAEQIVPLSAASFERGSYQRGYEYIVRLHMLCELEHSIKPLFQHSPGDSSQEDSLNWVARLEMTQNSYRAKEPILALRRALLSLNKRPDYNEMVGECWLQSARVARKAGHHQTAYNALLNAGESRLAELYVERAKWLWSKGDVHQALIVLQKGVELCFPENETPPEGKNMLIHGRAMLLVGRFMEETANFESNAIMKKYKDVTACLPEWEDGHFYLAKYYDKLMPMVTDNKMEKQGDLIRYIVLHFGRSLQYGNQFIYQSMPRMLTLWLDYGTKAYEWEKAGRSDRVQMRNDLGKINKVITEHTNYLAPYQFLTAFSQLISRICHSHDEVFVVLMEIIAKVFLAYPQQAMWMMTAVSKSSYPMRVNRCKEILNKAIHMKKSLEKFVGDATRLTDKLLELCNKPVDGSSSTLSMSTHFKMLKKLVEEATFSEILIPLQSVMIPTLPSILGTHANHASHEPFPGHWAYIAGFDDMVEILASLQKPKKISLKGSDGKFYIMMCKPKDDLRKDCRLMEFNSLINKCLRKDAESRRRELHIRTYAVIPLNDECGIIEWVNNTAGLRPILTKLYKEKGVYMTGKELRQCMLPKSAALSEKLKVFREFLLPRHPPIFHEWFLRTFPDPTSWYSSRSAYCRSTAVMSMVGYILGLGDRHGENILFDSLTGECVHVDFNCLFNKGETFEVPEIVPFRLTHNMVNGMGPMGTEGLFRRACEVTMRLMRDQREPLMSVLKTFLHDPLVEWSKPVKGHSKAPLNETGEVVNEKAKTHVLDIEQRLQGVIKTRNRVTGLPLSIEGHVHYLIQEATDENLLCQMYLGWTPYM
T1 sequence (Q8WXE1 whole entry partner): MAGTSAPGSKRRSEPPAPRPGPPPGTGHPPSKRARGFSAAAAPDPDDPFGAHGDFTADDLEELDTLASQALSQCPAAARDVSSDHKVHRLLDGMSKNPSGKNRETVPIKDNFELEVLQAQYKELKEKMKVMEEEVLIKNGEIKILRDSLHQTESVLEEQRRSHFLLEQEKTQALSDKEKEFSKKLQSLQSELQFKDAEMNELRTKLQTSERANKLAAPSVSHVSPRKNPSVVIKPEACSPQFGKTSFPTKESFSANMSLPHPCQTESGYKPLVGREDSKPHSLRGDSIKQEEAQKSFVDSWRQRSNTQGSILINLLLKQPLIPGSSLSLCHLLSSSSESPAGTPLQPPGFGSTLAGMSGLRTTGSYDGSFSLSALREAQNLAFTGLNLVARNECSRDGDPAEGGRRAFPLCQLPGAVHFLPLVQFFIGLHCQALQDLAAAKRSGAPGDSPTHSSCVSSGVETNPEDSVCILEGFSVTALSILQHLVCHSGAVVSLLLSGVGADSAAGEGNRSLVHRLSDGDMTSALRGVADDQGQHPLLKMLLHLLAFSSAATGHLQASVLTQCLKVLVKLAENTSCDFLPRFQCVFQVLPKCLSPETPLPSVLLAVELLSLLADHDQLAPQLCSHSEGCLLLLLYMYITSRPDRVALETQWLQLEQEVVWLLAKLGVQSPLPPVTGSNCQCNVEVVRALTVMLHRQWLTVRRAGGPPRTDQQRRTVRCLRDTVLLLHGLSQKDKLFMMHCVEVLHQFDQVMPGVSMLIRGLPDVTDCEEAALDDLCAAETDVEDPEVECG
Description: The test compound was diluted to a 4× final concentration with reaction buffer (25 mM HEPES (pH8.0), 10 mM MnCl2, 1% glycerol, 0.01% Brij-35, 5 mM DTT and 0.1% BSA). […] The mixture was centrifuged at 1000 rpm for 1 minute, and reacted at room temperature protected from light for 30 minutes. Then 5 μL of EDTA stop solution (250 mM) was added to stop the reaction. […] Data were analyzed using GraphPad Prism6.0, and fitted using the curve equation: Y=Bottom+(Top−Bottom)/(1+10^((Log IC50−X)*HillSlope)) and IC50 values were calculated.

IC50 [1] [nM]	IC50 [2] [nM]	pIC50 (ATR/ATRIP enzyme)	inhibition at 0.05 µM (ATR/ATRIP enzyme) [%]	Compound
61.9	40.4	8.15	–	C[C@@H]1COCCN1c1cc(-c2ccccc2F)c2cnc(-c3ccn[nH]3)n2n1 [Example 25, (R)-4-(4-(2-fluorophenyl)-7-(1H-pyrazol-5-yl)imidazo[1,5-b]pyridazin-2-yl)-3-methylmorpholine]
21.8	17.4	8.70	–	Cc1ccccc1-c1cc(N2CCOC[C@H]2C)nn2c(-c3ccn[nH]3)ncc12 [Example 40, (R)-4-(7-(1H-pyrazol-5-yl)-4-(o-tolyl)imidazo[1,5-b]pyridazin-2-yl)-3-methylmorpholine]
34.4	27.8	8.70	–	Cc1ccc(-c2cc(N3CCOC[C@H]3C)nn3c(-c4ccn[nH]4)ncc23)cn1 [Example 24, (R)-3-methyl-4-(4-(6-methylpyridin-3-yl)-7-(1H-pyrazol-5-yl)imidazo[1,5-b]pyridazin-2-yl)morpholine]
–	–	< 5.00	–	C[C@@H]1COCCN1c1cc(-c2ccnn2C)c2ncc(-c3ccn[nH]3)n2c1 [Example 1, (R)-3-methyl-4-(8-(1-methyl-1H-pyrazol-5-yl)-3-(1H-pyrazol-5-yl)imidazo[1,2-a]pyridin-6-yl)morpholine]
3230	> 10000	–	–	Cn1nccc1-c1cc(N2CCOCC2)nn2c(-c3ccn[nH]3)nnc12 [Example 12, 4-(8-(1-methyl-1H-pyrazol-5-yl)-3-(1H-pyrazol-5-yl)-[1,2,4]triazolo[4,3-b]pyridazin-6-yl)morpholine]
45	58.8	8.15	–	CCn1nccc1-c1cc(N2CCOC[C@H]2C)nn2c(-c3ccn[nH]3)ncc12 [Example 37, (R)-4-(4-(1-ethyl-1H-pyrazol-5-yl)-7-(1H-pyrazol-5-yl)imidazo[1,5-b]pyridazin-2-yl)-3-methylmorpholine]
68.2	55.2	8.22	–	CC(C)n1nccc1-c1cc(N2CCOC[C@H]2C)nn2c(-c3ccn[nH]3)ncc12 [Example 26, (R)-4-(4-(1-isopropyl-1H-pyrazol-5-yl)-7-(1H-pyrazol-5-yl)imidazo[1,5-b]pyridazin-2-yl)-3-methylmorpholine]
155	244	8.17	–	C[C@@H]1COCCN1c1cc(-c2ccnn2C)c2cnc(-c3cc[nH]c3)n2n1 [Example 21, (R)-3-methyl-4-(4-(1-methyl-1H-pyrazol-5-yl)-7-(1H-pyrrol-3-yl)imidazo[1,5-b]pyridazin-2-yl)morpholine]
32.9	43	8.22	–	Cc1cc(S(C)(=O)=O)ccc1-c1cc(N2CCOC[C@H]2C)nn2c(-c3ccn[nH]3)ncc12 [Example 49, (R)-3-methyl-4-(4-(2-methyl-4-(methylsulfonyl)phenyl)-7-(1H-pyrazol-5-yl)imidazo[1,5-b]pyridazin-2-yl)morpholine]
557	1610	7.23	–	C[C@@H]1COCCN1c1cc(-c2cncn2C)c2ncc(-c3ccn[nH]3)n2n1 [Example 5, (R)-3-methyl-4-(8-(1-methyl-1H-imidazol-5-yl)-3-(1H-pyrazol-5-yl)imidazo[1,2-b]pyridazin-6-yl)morpholine]
1530	1800	< 6.00	–	C[C@@H]1COCCN1c1cc(-c2ccnn2C)c2cnc(-c3c[nH]cn3)n2n1 [Example 23, (R)-4-(7-(1H-imidazol-4-yl)-4-(1-methyl-1H-pyrazol-5-yl)imidazo[1,5-b]pyridazin-2-yl)-3-methylmorpholine]
59.9	86.8	7.80	–	Cc1nc([S+](C)[O-])ccc1-c1cc(N2CCOC[C@H]2C)nn2c(-c3ccn[nH]3)ncc12 (stereo partly drawn) [Example 50, (3R)-3-methyl-4-(4-(2-methyl-6-(methylsulfinyl)pyridin-3-yl)-7-(1H-pyrazol-5-yl)imidazo[1,5-b]pyridazin-2-yl)morpholine]
168	159	–	63	Cn1nccc1-c1cc(N2CCOCC2)nn2c(-c3ccn[nH]3)ncc12 [Example 11, 4-(4-(1-methyl-1H-pyrazol-5-yl)-7-(1H-pyrazol-5-yl)imidazol[1,5-b]pyridazin-2-yl)morpholine]
124	287	–	–	C[C@@H]1COCCN1c1cc(-c2ccn[nH]2)c2cnc(-c3ccn[nH]3)n2n1 [Example 27, (R)-4-(4,7-di(1H-pyrazol-5-yl)imidazo[1,5-b]pyridazin-2-yl)-3-methylmorpholine]
49.5	48.8	8.70	–	Cc1cnn(C)c1-c1cc(N2CCOC[C@H]2C)nn2c(-c3ccn[nH]3)ncc12 [Example 41, (R)-4-(4-(1,4-dimethyl-1H-pyrazol-5-yl)-7-(1H-pyrazol-5-yl)imidazo[1,5-b]pyridazin-2-yl)-3-methylmorpholine]
75.4	171	–	71	C[C@@H]1COCCN1c1cc(-c2ccc(S(C)(=O)=O)cc2)c2cnc(-c3ccn[nH]3)n2n1 [Example 35, (R)-3-methyl-4-(4-(4-(methylsulfonyl)phenyl)-7-(1H-pyrazol-5-yl)imidazo[1,5-b]pyridazin-2-yl)morpholine]
23.1	18.2	7.92	–	C[C@@H]1COCCN1c1cc(-c2ccncc2F)c2cnc(-c3ccn[nH]3)n2n1 [Example 43, (R)-4-(4-(3-fluoropyridin-4-yl)-7-(1H-pyrazol-5-yl)imidazo[1,5-b]pyridazin-2-yl)-3-methylmorpholine]
44.7	30.6	8.70	–	Cc1ncccc1-c1cc(N2CCOC[C@H]2C)nn2c(-c3ccn[nH]3)ncc12 [Example 42, (R)-3-methyl-4-(4-(2-methylpyridin-3-yl)-7-(1H-pyrazol-5-yl)imidazo[1,5-b]pyridazin-2-yl)morpholine]
72.8	77.8	7.92	–	C[C@@H]1COCCN1c1cc(N2CCOCC2)c2cnc(-c3ccn[nH]3)n2n1 [Example 46, (R)-3-methyl-4-(4-morpholino-7-(1H-pyrazol-5-yl)imidazo[1,5-b]pyridazin-2-yl)morpholine]
175	169	–	–	C[C@@H]1COCCN1c1cc(-c2ccn(CCF)n2)c2cnc(-c3ccn[nH]3)n2n1 [Example 61, (R)-4-(4-(1-(2-fluoroethyl)-1H-pyrazol-3-yl)-7-(1H-pyrazol-5-yl)imidazo[1,5-b]pyridazin-2-yl)-3-methylmorpholine]
597	1920	–	–	C[C@@H]1COCCN1c1cc(-c2ccnn2C)c2nnc(-c3ccn[nH]3)n2n1 [Example 15, (R)-3-methyl-4-(8-(1-methyl-1H-pyrazol-5-yl)-3-(1H-pyrazol-5-yl)-[1,2,4]triazolo[4,3-b]pyridazin-6-yl)morpholine]
51	95.3	–	–	C[C@@H]1COCCN1c1cc(-c2ccnc3[nH]ccc23)c2cnc(-c3ccn[nH]3)n2n1 [Example 55, (R)-4-(7-(1H-pyrazol-5-yl)-4-(1H-pyrrolo[2,3-b]pyridin-4-yl)imidazo[1,5-b]pyridazin-2-yl)-3-methylmorpholine]
76.7	76.3	–	–	Cc1cnccc1-c1cc(N2CCOC[C@H]2C)nn2c(-c3ccn[nH]3)ncc12 [Example 51, (R)-3-methyl-4-(4-(3-methylpyridin-4-yl)-7-(1H-pyrazol-5-yl)imidazo[1,5-b]pyridazin-2-yl)morpholine]
953	1520	–	–	C[C@@H]1COC[C@@H](C)N1c1cc(-c2ccnn2C)c2cnc(-c3ccn[nH]3)n2n1 [Example 34, (3R,5R)-3,5-dimethyl-4-(4-(1-methyl-1H-pyrazol-5-yl)-7-(1H-pyrazol-5-yl)imidazo[1,5-b]pyridazin-2-yl)morpholine]

Compound	IC50 [1] [nM]	IC50 [2] [nM]	pIC50 (ATR/ATRIP enzyme)	inhibition at 0.05 µM (ATR/ATRIP enzyme) [%]
C[C@H]1COCCN1c1cc(-c2ccnn2C)c2cnc(-c3ccn[nH]3)n2n1 [Example 33, (S)-3-methyl-4-(4-(1-methyl-1H-pyrazol-5-yl)-7-(1H-pyrazol-5-yl)imidazo[1,5-b]pyridazin-2-yl)morpholine]	230	256	–	27
